Laboratory results: the NIST ThermoML archive (doi:10.1021/je8002964)
± gives the expanded uncertainty stated by the source.

Conditions: 298.15 K; 101.33 kPa; Liquid
`C1CCCCC1` [cyclohexane] gave a mass density of 774 ± 0.3 kg/m3. With `CO` [methanol] the mass density was 787 ± 0.4 kg/m3. With `CCCCCCC` [heptane] the mass density was 680 ± 0.7 kg/m3. With `OCC(F)(F)F` [2,2,2-trifluoroethanol] the mass density was 1382.4 ± 1.2 kg/m3. `CC(C)O` [propan-2-ol] gave a mass density of 781.4 ± 0.5 kg/m3.
